This is an account of results in patent US8088806B2 (Achillion Pharmaceuticals, Inc., priority 2005, dated 2012).

This assay deals with HCV replicon. Nature of the assay: Replicon based assay of HCV replication inhibition (NPT ELISA). The assay is classed as cell-based, Hepatitis C virus. The following applies: Hepatitis C virus, Huh-7, 72 h, Table I; Huh-7 HCV replicon-containing cells, three days; read-out: Activity. A digest of the protocol: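 NPT (neomycin phosphotransferase) content, proportional to replicon replication, quantified by capture ELISA on day four. Before that, replicon-bearing Huh-7 cells in G418-free screening medium were exposed three days at 37° C to compound, typically six doses from 10 to 0.03 micromolar, with equal DMSO across wells.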
Turning to `c1cncc(-c2csc(Nc3ccc(N4CCOCC4)cc3)n2)c1` [compound 99, N-(4-morpholinophenyl)-4-(pyridin-3-yl)thiazol-2-amine], the EC50 was above 10 µM.
`c1cncc(-c2csc(Nc3ccc(C4CCCCC4)cc3)n2)c1` [compound 100, N-(4-cyclohexylphenyl)-4-(pyridin-3-yl)thiazol-2-amine]: the EC50 is below 1 µM.
As to `c1cncc(-c2csc(Nc3ccc(N4CCCCC4)cc3)n2)c1` [compound 101, N-(4-(piperidin-1-yl)phenyl)-4-(pyridin-3-yl)thiazol-2-amine], the EC50 is above 10 µM.
The same measure for `c1cncc(-c2csc(Nc3ccc(-c4csnn4)cc3)n2)c1` [compound 102, N-(4-(1,2,3-thiadiazol-4-yl)phenyl)-4-(pyridin-3-yl)thiazol-2-amine]: above 10 µM.
For `c1cncc(-c2csc(Nc3ccc(-n4ccnc4)cc3)n2)c1` [compound 103, N-(4-(1H-imidazol-1-yl)phenyl)-4-(pyridin-3-yl)thiazol-2-amine], the EC50 was above 10 µM.
As for `c1cncc(-c2csc(Nc3ccc4c(c3)Cc3ccccc3-4)n2)c1` [compound 104, N-(9H-fluoren-7-yl)-4-(pyridin-3-yl)thiazol-2-amine], the EC50 was in the range of 1 to 10 µM.
With `Cc1nccc(-c2cccc(Nc3nc(-c4cccnc4)cs3)c2)n1` [compound 105, N-(3-(2-methylpyrimidin-4-yl)phenyl)-4-(pyridin-3-yl)thiazol-2-amine] the figure was above 10 µM; with `CC(C)N(c1ccccc1)c1ccc(Nc2nc(-c3cccnc3)cs2)cc1` [compound 106, N1-isopropyl-N1-phenyl-N4-(4-(pyridin-3-yl)thiazol-2-yl)benzene-1,4-diamine], above 10 µM.
The same measure for `CCCCOC(=O)c1ccc(Nc2nc(-c3cccnc3)cs2)cc1` [compound 107, butyl 4-(4-(pyridin-3-yl)thiazol-2-ylamino)benzoate]: above 10 µM.
Take `CCOC(=O)C1CCN(Cc2cccc(Nc3nc(-c4cccnc4)cs3)c2)CC1` [compound 108, ethyl 1-(3-(4-(pyridin-3-yl)thiazol-2-ylamino)benzyl)piperidine-4-carboxylate]: the EC50 is above 10 µM.
The same measure for `CCOC(=O)Cc1ccc(Nc2nc(-c3cccnc3)cs2)cc1` [compound 109, ethyl 2-(4-(4-(pyridin-3-yl)thiazol-2-ylamino)phenyl)acetate]: above 10 µM; for `CCCc1ccc(Nc2nc(-c3cccnc3)cs2)cc1` [compound 110, N-(4-propylphenyl)-4-(pyridin-3-yl)thiazol-2-amine]: above 10 µM.
The same measure for `CC(C)(C)c1ccc(NC(=O)c2nc(-c3cccnc3)cs2)cc1` [compound 111, N-(4-tert-butylphenyl)-4-(pyridin-3-yl)thiazole-2-carboxamide]: above 10 µM.
Take `CCCCCOc1ccc(NC(=O)c2nc(-c3cccnc3)cs2)cc1C(F)(F)F` [compound 112, N-(3-(trifluoromethyl)-4-(pentyloxy)phenyl)-4-(pyridin-3-yl)thiazole-2-carboxamide]: the EC50 was above 10 µM.
As for `CCCCCOc1ccc(NC(=O)c2nc(-c3cccnc3)cs2)cc1` [compound 113, N-(4-(pentyloxy)phenyl)-4-(pyridin-3-yl)thiazole-2-carboxamide], the EC50 is above 10 µM.
With `O=C(Nc1ccc(OCc2ccccc2)cc1)c1nc(-c2cccnc2)cs1` [compound 114] the figure was above 10 µM.
With `O=C(Nc1ccc(Oc2ccc(Cl)cc2)cc1)c1nc(-c2cccnc2)cs1` [compound 115, N-(4-(4-chlorophenoxy)phenyl)-4-(pyridin-3-yl)thiazole-2-carboxamide] the figure was above 10 µM; with `CCCCCOc1ccc(N(C(C)=O)c2nc(-c3ccc(F)cc3)cs2)cc1C(F)(F)F` [compound 116, N-(3-(trifluoromethyl)-4-(pentyloxy)phenyl)-N-(4-(4-fluorophenyl)thiazol-2-yl)acetamide], below 1 µM; with `CCCCCOc1ccc(Nc2ncc(-c3ccccc3)s2)cc1C(F)(F)F` [compound 117, N-(3-(trifluoromethyl)-4-(pentyloxy)phenyl)-5-phenylthiazol-2-amine], below 1 µM.
The same measure for `Fc1ccc(Nc2nc(C(F)(F)F)c(-c3cccc(Cl)c3)s2)cc1` [compound 118, 5-(3-chlorophenyl)-4-(trifluoromethyl)-N-(4-fluorophenyl)thiazol-2-amine]: above 10 µM; for `COc1ccc(Nc2nc(-c3ccccc3)c(-c3ccccc3)s2)cc1` [compound 119, N-(4-methoxyphenyl)-4,5-diphenylthiazol-2-amine]: below 1 µM.
As for `CCN(CC)S(=O)(=O)c1ccc(-c2csc(Nc3ccc(Br)cc3)n2)cc1` [compound 120, N-(4-bromophenyl)-4-diethylaminosulfonyl-phenyl-2-amine], the EC50 was above 10 µM.
The same measure for `COc1ccc(Nc2nc(-c3ccc(OCc4ccc(Br)cc4)cc3)cs2)cc1` [compound 122, 4-(4-(4-bromobenzyloxy)phenyl)-N-(4-methoxyphenyl)thiazol-2-amine]: above 10 µM; for `O=C(Nc1ccc(Cl)c(Cl)c1)c1nc(-c2cccnc2)cs1` [compound 123, N-(3,4-dichlorophenyl)-4-(pyridin-3-yl)thiazole-2-carboxamide]: above 10 µM; for `CN(C(=O)c1nc(-c2cccnc2)cs1)c1ccc(Cl)c(Cl)c1` [compound 124, N-(3,4-dichlorophenyl)-N-methyl-4-(pyridin-3-yl)thiazole-2-carboxamide]: above 10 µM.
For `O=C(Nc1ccc(Cl)c(Cl)c1)c1csc(-c2cccnc2)n1` [compound 125, N-(3,4-dichlorophenyl)-2-(pyridin-3-yl)thiazole-4-carboxamide], the EC50 is above 10 µM.
The same measure for `CN(C(=O)c1csc(-c2cccnc2)n1)c1ccc(Cl)c(Cl)c1` [compound 126, N-(3,4-dichlorophenyl)-N-methyl-2-(pyridin-3-yl)thiazole-4-carboxamide]: above 10 µM; for `CCCCCOc1ccc(NC(=O)c2csc(-c3cccnc3)n2)cc1C(F)(F)F` [compound 127, N-(3-(trifluoromethyl)-4-(pentyloxy)phenyl)-2-(pyridin-3-yl)thiazole-4-carboxamide]: above 10 µM; for `CCCCCOc1ccc(Nc2nc(C(=O)Nc3ccc(Cl)c(Cl)c3)cs2)cc1C(F)(F)F` [compound 128, 2-(3-(trifluoromethyl)-4-(pentyloxy)phenylamino)-N-(3,4-dichlorophenyl)thiazole-4-carboxamide]: 1 to 10 µM.
As to `CCCCCOc1ccc(Nc2nc(C(=O)N(C)c3ccc(Cl)c(Cl)c3)cs2)cc1C(F)(F)F` [compound 129, 2-(3-(trifluoromethyl)-4-(pentyloxy)phenylamino)-N-(3,4-dichlorophenyl)-N-methylthiazole-4-carboxamide], the EC50 was above 10 µM.
The same measure for `CCCCCOc1ccc(Nc2ncc(C(=O)OC)s2)cc1C(F)(F)F` [compound 130, methyl 2-(3-(trifluoromethyl)-4-(pentyloxy)phenylamino)thiazole-5-carboxylate]: above 10 µM.
With `CCCCCOc1ccc(Nc2nc(-c3ccc(O)c(C(N)=O)c3)cs2)cc1C(F)(F)F` [compound 131, 5-(2-(3-(trifluoromethyl)-4-(pentyloxy)phenylamino)thiazol-4-yl)-2-hydroxybenzamide], the EC50 was below 1 µM.
With `CCCCCOc1ccc(Nc2nc(-c3ccc(C#N)cc3)cs2)cc1C(F)(F)F` [compound 132, 4-(2-(3-(trifluoromethyl)-4-(pentyloxy)phenylamino)thiazol-4-yl)benzonitrile] the figure was below 1 µM.
The same measure for `CCCCCOc1ccc(Nc2nc(-c3ccc(F)c(F)c3)cs2)cc1C(F)(F)F` [compound 133, N-(3-(trifluoromethyl)-4-(pentyloxy)phenyl)-4-(3,4-difluorophenyl)thiazol-2-amine]: below 1 µM; for `CCCCCOc1ccc(Nc2nc(-c3ccc(OC)cc3)cs2)cc1C(F)(F)F` [compound 134, N-(3-(trifluoromethyl)-4-(pentyloxy)phenyl)-4-(4-methoxyphenyl)thiazol-2-amine]: below 1 µM.
With `CCCCCOc1ccc(Nc2nc(-c3ccc(Cl)cc3)c(-c3ccccc3)s2)cc1C(F)(F)F` [compound 135, 4-(4-chlorophenyl)-N-(3-(trifluoromethyl)-4-(pentyloxy)phenyl)-5-phenylthiazol-2-amine] the figure was above 10 µM.
Consider `CCCCCOc1ccc(Nc2nc(C(C)=O)c(C)s2)cc1C(F)(F)F` [compound 136, 1-(2-(3-(trifluoromethyl)-4-(pentyloxy)phenylamino)-5-methylthiazol-4-yl)ethanone], for which the EC50 was above 10 µM.
`CCCCCOc1ccc(Nc2nc(-c3ccc(OCC(=O)O)cc3)c(C)s2)cc1C(F)(F)F` [compound 137, 2-(4-(2-(3-(trifluoromethyl)-4-(pentyloxy)phenylamino)-5-methylthiazol-4-yl)phenoxy)acetic acid]: the EC50 was below 1 µM.
With `CCCCCOc1ccc(Nc2nc(-c3ccc(OCC(=O)OCC)cc3)c(C)s2)cc1C(F)(F)F` [compound 139, ethyl 2-(4-(2-(3-(trifluoromethyl)-4-(pentyloxy)phenylamino)-5-methylthiazol-4-yl)phenoxy)acetate] the figure was below 1 µM.
`CCCCCOc1ccc(N(C(=O)c2cccnc2)c2nc(NC(=O)c3cccnc3)cs2)cc1C(F)(F)F` [compound 140, N-(2-(N-(3-(trifluoromethyl)-4-(pentyloxy)phenyl)nicotinamido)-thiazol-4-yl)nicotinamide]: the EC50 is below 1 µM.
With `c1ccc(Oc2ccc(Nc3nc(-c4cccnc4)cs3)cc2)cc1` [compound 141, N-(4-phenoxyphenyl)-4-(pyridin-3-yl)thiazol-2-amine] the figure was below 1 µM.
With `Clc1ccc(-c2csc(NC3=NN(c4ccccc4)CC3)n2)cc1` [compound 142, N-(4-(4-chlorophenyl)thiazol-2-yl)-4,5-dihydro-1-phenyl-1H-pyrazol-3-amine], the EC50 was above 10 µM.
